# Experimental data as given in US6013626A (priority 1995, dated 2000).
# Several values for one entry are separate records, joined by “and”; a condition that tells them apart may be missing. Equal values may be shown once. Entries after “also recorded” stand apart in the source; their conditions may differ. Read-outs that look alike come from different tables or passages of the source.
# Key:
# [1] = tested on: tumor (leukemia) and normal cell (CFUGM) lines; assay type: cell-based; conditions: μg/disk per compound where printed
# [2] = tested on: murine leukemia (L1210 or P388), murine solid tumor, human solid tumor and low malignancy fibroblast (LML)
# [3] = tested on: Panc 03 (pancreatic ductal adenocarcinoma #03); conditions: for Log Kill: 9 inj. IV
# Experimental: (§1) Gross log kill is defined as T-C/3.2 Td where T is the median time in days for the tumors of the treated group to reach 750 mg, C is the median time in days for the tumors of the control group to reach 750 mg, and Td is the tumor volume doubling time.
# [4] = Solvolysis (methanolysis) of the C-D ester bond; assay type: physicochemical; conditions: methanol used in isolation scheme
# [5] = tested on: murine and human tumors implanted in mice; assay type: in vivo; conditions: for in vivo antitumor activity: tumors implanted in mice; for tumor burden T/C values: summary: Cryptophycin 1 in five early stage murine and two early stage human tumors, Cryptophycin 8 in all tumors tested to date
# Experimental: as §1
# colon adenocarcinoma #33 = experiment: In vivo activity, early stage colon adenocarcinoma #33; parameters: species or system mice; conditions: 8.1 mg/kg
# Experimental: Gross log kill is defined as T-C/3.2 Td where T is the median time in days for the tumors of the treated group to reach 750 mg, C is the median time in days for the tumors of the control group to reach 750 mg, and Td is the tumor volume doubling time (T. H. Corbett et al., Cytotoxic Anticancer Drugs: Models and Concepts for Drug Discovery and Development, pp 35-87; Kluwer: Norwell, 1992).
# Toxicity in mice = assay type: in vivo; conditions: for cause of lethal toxicity observed during testing: in vivo testing
# [6] = tested on: human tumor cell lines such as KB and LoVo; experiment: Cytotoxicity against human tumor cell lines such as KB and LoVo; assay type: cell-based
# [7] = tested on: Colon 38 (colon adenocarcinoma #38)
# Experimental: as §1
# Mam 16/C = experiment: In vivo activity, SC Mam 16/C tumor; parameters: species or system mice
# Experimental: as §1
# [8] = tested on: Colon 51 (colon adenocarcinoma #51); experiment: In vivo activity, SC Colon 51 tumor; parameters: species or system mice
# Experimental: as §1
# [9] = tested on: murine and human tumors implanted in mice; conditions: G. Trimurtulu et al. 1994; R. Barrow et al. 1995; cited from earlier work
# microtubule assembly = conditions: C. D. Smith et al. 1994; compared with vinblastine; cited from earlier work
# [10] = tested on: fungi, especially strains of Cryptococcus; conditions: R. E. Schwartz et al. 1990; cited from earlier work
# LNCaP Human Prostate = experiment: In vivo activity, SC LNCaP tumor; parameters: species or system mice; conditions: Exp 1841, 6 inj. IV, total dose 6.5 mg/kg
# Experimental: as §1
# MX-1 Human Breast = experiment: In vivo activity, SC MX-1 tumor; parameters: species or system SCID mice; conditions: Exp 1806; SC MX-1 Human Breast; 8 inj. IV; total dose 12 mg/kg
# Experimental: as §1
# Human Sm Cell L. DMS273 = experiment: In vivo activity, SC DMS273 tumor; conditions: Exp 1596; SC Human Sm Cell L. DMS273 SCID; 6 inj. IV; total dose 7.3 mg/kg
# Experimental: as §1
# H125 Human Adenosq-lung = assay type: in vivo, SCID mice; conditions: Exp 1823; SC H125 Human Adenosq-lung; 8 inj. IV; total dose 14.4 mg/kg
# Experimental: as §1
# [11] = tested on: Mam 16/Taxol (taxol-resistant mammary #16/C/RP); experiment: In vivo activity, SC Mam 16/Taxol tumor; parameters: species or system mice; conditions: Exp 1733, 5 inj. IV, total dose 16.5 mg/kg
# Experimental: as §1
# M17/0 (Adr. Sens.) = experiment: In vivo activity, SC M17/0 tumor; parameters: species or system mice; conditions: Exp 1833; SC M17/0 (Adr. Sens.); 5 inj. IV; total dose 5.4 mg/kg
# Experimental: as §1
# [12] = μg/disk differs per compound (0.2-250 μg/disk)
# [13] = pancreatic ductal adenocarcinoma #03, 8.1 mg/kg
# [14] = Exp 1769, SC C38, 15 inj. IV, 45 mg/kg TD
structure (smiles),measurement,setting,value
"COc1cc([C@@H]2c3cc4c(cc3[C@@H](O[C@@H]3O[C@@H]5CO[C@@H](C)O[C@H]5[C@H](O)[C@H]3O)[C@H]3COC(=O)[C@H]23)OCO4)cc(OC)c1O [VP-16, etoposide, reference compound]","Valeriote Assay, Differential in Zone Units",[1],260 zone units
same,"Corbett Assay, Differential in Zone Units",[2]; [12],350 zone units and 530 zone units
COc1ccc(C[C@H]2NC(=O)/C=C/C[C@@H]([C@H](C)[C@H]3O[C@@H]3c3ccccc3)OC(=O)[C@H](CC(C)C)OC(=O)CCNC2=O)cc1Cl [Cryptophycin 21],Log Kill,"[3]; Exp 1813, SC P03, 27 mg/kg TD",None
same,susceptibility to methanolysis,[4],much more susceptible to methanolysis than Cryptophycin 1
same,in vivo antitumor activity,[5],inactive
CC(C)C[C@@H]1OC(=O)[C@H](C)CNC(=O)[C@@H](Cc2ccc(O)c(Cl)c2)NC(=O)/C=C/C[C@@H]([C@H](C)[C@H]2O[C@@H]2c2ccccc2)OC1=O [Cryptophycin 16],Log Kill,"[3]; Exp 1878, SC P03, 82 mg/kg TD",None
COc1ccc(C[C@H]2NC(=O)/C=C/C[C@@H]([C@H](C)[C@H]3O[C@@H]3c3ccccc3)OC(=O)[C@H](CC(C)C)OC(=O)C(C)(C)CNC2=O)cc1Cl [Cryptophycin 52],gross (tumor cell) log kill,[3]; [13],< 2
same,tumor burden T/C,[3]; [13],16%
same,gross (tumor cell) log kill,colon adenocarcinoma #33,< 2
same,tumor burden T/C,colon adenocarcinoma #33,4%
same,acute and chronic toxicities,Toxicity in mice; in mice,greater than Cryptophycin 1
same,IC50's,[6],0.025 to 0.05 ng/mL
same,in vivo antitumor activity,[5],antitumor activity is seen at sublethal levels; also recorded: comparable in vivo activity to Cryptophycin 1
COc1ccc(C[C@H]2NC(=O)/C=C/C[C@@H]([C@H](C)/C=C/c3ccccc3)OC(=O)[C@H](CC(C)C)OC(=O)[C@H](C)CNC2=O)cc1Cl [Cryptophycin 3],"Corbett Assay, Differential in Zone Units",[2],> 400
same,"Corbett Assay, Type of Cytotoxicity",[2]; [12],E/T
same,IC50's,[6],2 to 4 ng/mL
COc1ccc(C[C@H]2NC(=O)/C=C/C[C@@H]([C@H](C)[C@@H](O)[C@@H](Cl)c3ccccc3)OC(=O)[C@H](CC(C)C)OC(=O)[C@H](C)CNC2=O)cc1Cl [Cryptophycin 8],Cures,"[3]; Exp 1825, SC P03, 11 inj. IV, 106 mg/kg TD",0/5
same,"Corbett Assay, Differential in Zone Units",[2],> 500
same,"Corbett Assay, Type of Cytotoxicity",[2]; [12],E/T
same,Log Kill,[7]; [14],None
same,T/C,[7]; [14],> 100%
same,% Body Wt. Loss at Nadir,"[7]; Exp 1887B, SC C38, 6 inj. IV, 30 mg/kg TD",-2%
same,cause of lethal toxicity observed during testing,Toxicity in mice,attributed to leucopenia
same,Cures,"Mam 16/C; Exp 1885, 7 inj. IV, 21.3 mg/kg TD",0/5
same,Cures,"[8]; Exp 1900, 9 inj. IV, 67.5 mg/kg TD",0/5
same,Cures,[5]; summary b279,some cures
same,gross log kill activity ratings,[5]; summary b279,+++ to ++++
same,tumor burden T/C values,[5],< 10%
COc1ccc(C[C@H]2NC(=O)/C=C/C[C@@H]([C@H](C)[C@H]3O[C@@H]3c3ccccc3)OC(=O)[C@H](CC(C)C)OC(=O)[C@H](C)CNC2=O)cc1Cl [Cryptophycin 1],activity against subcutaneously transplanted solid tumors in mice,[9],very active against subcutaneously transplanted solid tumors in mice
same,inhibition of microtubule assembly,microtubule assembly,irreversibly inhibiting mircotubule assembly
same,antifungal activity,[10],"very active against fungi, especially strains of Cryptococcus"
same,Cures,LNCaP Human Prostate,0/5
same,Log Kill,LNCaP Human Prostate,< 1
same,Cures,MX-1 Human Breast,0/5
same,Log Kill,MX-1 Human Breast,2.0
same,"Corbett Assay, Differential in Zone Units",[2],> 400
same,"Corbett Assay, Type of Cytotoxicity",[2]; [12],E/T
same,% Body Wt. Loss at Nadir,Human Sm Cell L. DMS273,0%
same,Cures,Human Sm Cell L. DMS273,0/5
same,Log Kill,Human Sm Cell L. DMS273,< 1
same,Cures,H125 Human Adenosq-lung,0/5
same,Log Kill,H125 Human Adenosq-lung,1.1
same,% Body Wt. Loss at Nadir,"[7]; Exp 1560, SC Colon 38, 8 inj. IV, total dose 10.3 mg/kg",Gain
same,cause of lethal toxicity observed during testing,Toxicity in mice,attributed to leucopenia
same,Cures,"Mam 16/C; Exp 1720, 5 inj. IV, total dose 13.2 mg/kg",0/5
same,Cures,[11],0/4
same,Cures,"[8]; Exp 1636, 7 inj. IV, total dose 28.1 mg/kg",0/5
same,Cures,M17/0 (Adr. Sens.),0/5
same,"log kill values, range over trials",[5]; summary b714,<1 to 2
same,tumor burden T/C values,[5],less than 10%
same,in vivo antitumor activity,[5],shows antitumor activity; also recorded: very promising activity
COc1ccc(C[C@H]2NC(=O)/C=C/C[C@@H]([C@H](C)/C=C/c3ccccc3)OC(=O)[C@H](CC(C)C)OC(=O)C(C)(C)CNC2=O)cc1Cl [Cryptophycin 51],IC50's,[6],2 to 4 ng/mL
COc1ccc(C[C@H]2NC(=O)/C=C/C[C@@H]([C@H](C)/C=C/c3ccccc3)OC(=O)[C@H](CC(C)C)OC(=O)[C@H](C)CNC2=O)cc1 [Cryptophycin 4],"Corbett Assay, Differential in Zone Units",[2]; [12],> 400 zone units
same,"Corbett Assay, Type of Cytotoxicity",[2]; [12],E/T
COc1ccc(CC2NC(=O)CCCC(C(C)C3OC3c3ccccc3)OC(=O)C(CC(C)C)OC(=O)C(C)CNC2=O)cc1Cl (centres unmarked) [Cryptophycin 35],in vivo antitumor activity,[5],Good in vivo activity
"CC(=O)O[C@H]1C(=O)[C@@]2(C)[C@H]([C@H](OC(=O)c3ccccc3)[C@]3(O)C[C@H](OC(=O)[C@H](O)[C@@H](NC(=O)c4ccccc4)c4ccccc4)C(C)=C1C3(C)C)[C@]1(OC(C)=O)CO[C@@H]1C[C@@H]2O [Taxol, taxol, reference compound]","Corbett Assay, Differential in Zone Units",[2]; [12],≥ 400 zone units
same,"Corbett Assay, Type of Cytotoxicity",[2]; [12],M/H/T
COc1ccc(C[C@H]2NC(=O)/C=C/C[C@@H]([C@H](C)[C@H]3O[C@@H]3c3ccccc3)OC(=O)[C@H](CC(C)C)OC(=O)[C@H](C)CNC2=O)cc1 [Cryptophycin 2],"Corbett Assay, Differential in Zone Units",[2]; [12],> 400 zone units
same,"Corbett Assay, Type of Cytotoxicity",[2]; [12],E/T
